Our source for the DC50 and Dmax values is patent publication US11957759B1, “Rapidly accelerated fibrosarcoma (RAF) degrading compounds and associated methods of use” (Arvinas Operations, Inc., priority 2022, dated 2024).

Some results are limits rather than exact numbers.

As a reminder, the DC50 is the concentration at which degradation of the target reaches its halfway point. A low value points to degradation at low concentration. The term Dmax denotes the largest share of the target that was removed.

Test [1] has as its target T1, B-RAF G466V (Homo sapiens, UniProt P15056, G466V).
T1 construct: expressed in transfected cells; host or cells: T-Rex 293 cells (Invitrogen #R71007)
Description: Target protein degradation, assay D: T-Rex 293 cells, HA-BRAF_G466V, 384 well format. As to conditions: T-Rex 293 HA-BRAF_G466V cells, 24 hours, Examples 83-269; for DC50: Assay D; for Dmax: T-REx-293, Assay D. It counts as cell-based. Summed up:
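Degradation measured by high-content imaging of anti-HA immunofluorescence in fixed T-Rex 293 cells carrying inducible HA-BRAF G466V (1 ng/mL doxycycline), after 24 h PROTAC exposure at 37 °C over 300 nM–5 pM (1:3, 11 points, 0.5% DMSO). Outputs DC50 and Dmax as % of control; nuclei counts against DMSO wells gauge toxicity.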

The target of test [2] is T2, B-RAF V600E (Homo sapiens, UniProt P15056, V600E).
T2 construct: expressed in transfected cells; host or cells: T-Rex 293 cells (Invitrogen #R71007)
T2 sequence (P15056 whole entry V600E): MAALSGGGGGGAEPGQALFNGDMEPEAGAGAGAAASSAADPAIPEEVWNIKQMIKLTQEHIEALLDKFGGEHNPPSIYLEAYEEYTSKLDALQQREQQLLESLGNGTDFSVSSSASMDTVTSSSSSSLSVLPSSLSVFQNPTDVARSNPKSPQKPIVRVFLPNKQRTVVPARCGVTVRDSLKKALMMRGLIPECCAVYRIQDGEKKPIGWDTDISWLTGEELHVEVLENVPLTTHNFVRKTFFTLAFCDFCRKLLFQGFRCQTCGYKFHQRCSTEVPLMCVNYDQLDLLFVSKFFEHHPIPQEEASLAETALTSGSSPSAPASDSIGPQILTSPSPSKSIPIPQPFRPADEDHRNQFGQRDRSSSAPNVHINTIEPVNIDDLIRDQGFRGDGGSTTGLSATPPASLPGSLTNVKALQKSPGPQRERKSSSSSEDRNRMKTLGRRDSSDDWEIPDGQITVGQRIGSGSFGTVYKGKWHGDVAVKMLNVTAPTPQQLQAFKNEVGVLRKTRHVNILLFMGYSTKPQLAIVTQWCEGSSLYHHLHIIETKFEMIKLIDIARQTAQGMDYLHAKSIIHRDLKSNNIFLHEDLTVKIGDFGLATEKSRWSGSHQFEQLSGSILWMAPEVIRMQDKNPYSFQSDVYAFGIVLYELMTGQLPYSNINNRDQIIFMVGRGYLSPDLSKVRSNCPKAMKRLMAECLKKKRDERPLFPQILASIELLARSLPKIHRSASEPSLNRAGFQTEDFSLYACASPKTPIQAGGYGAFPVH
Description: Target protein degradation, assay C: T-Rex 293 cells, HA-BRAF_V600E, 384 well format. It counts as cell-based. As to conditions: T-Rex 293 HA-BRAF_V600E cells, 24 hours, Examples 83-269; for DC50: Assay C; for Dmax: T-REx-293, Assay C. In short, it runs like this: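 After 24 h exposure to an 11-point 1:3 series (300 nM–5 pM, 0.5% DMSO), fixed T-Rex 293 cells carrying HA-BRAF V600E (induced with 1 ng/mL doxycycline) were stained anti-HA and imaged. DC50 and Dmax were derived from BRAF intensity relative to control, and cytotoxicity from nuclear counts.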

T1 sequence (P15056 whole entry G466V): as the sequence (P15056 whole entry V600E) above, with G466V, E600V counted along it

Consider `N#Cc1c(NS(=O)(=O)N2CC[C@@H](F)C2)ccc(F)c1Oc1ccc2ncn(-c3cccc(C4CCN(CC5CN(c6ccc7c(c6)CN([C@H]6CCC(=O)NC6=O)C7=O)C5)CC4)c3)c(=O)c2c1` [Example 255, (3R)-N-(2-cyano-3-{[3-(3-{1-[(1-{2-[(3S)-2,6-dioxopiperidin-3-yl]-1-oxo-2,3-dihydro-1H-isoindol-5-yl}azetidin-3-yl)methyl]piperidin-4-yl}phenyl)-4-oxo-3,4-dihydroquinazolin-6-yl]oxy}-4-fluorophenyl)-3-fluoropyrrolidine-1-sulfonamide], for which the DC50 in test [1] was 1 to 10 nM; in test [2] it was 50 to 500 nM. For the same molecule, the values for the Dmax in test [1] and in test [2] were ≥ 70% and 35 to 70%, respectively.
Turning to `N#Cc1c(NS(=O)(=O)N2CC[C@@H](F)C2)ccc(F)c1Oc1ccc2ncn(-c3ccc(C4CCN(CC5CN(c6ccc7c(c6)CN([C@H]6CCC(=O)NC6=O)C7=O)C5)CC4)cc3)c(=O)c2c1` [Example 256, (3R)-N-(2-cyano-3-([3-(4-{1-[(1-{2-[(3S)-2,6-dioxopiperidin-3-yl]-1-oxo-2,3-dihydro-1H-isoindol-5-yl}azetidin-3-yl)methyl]piperidin-4-yl}phenyl)-4-oxo-3,4-dihydroquinazolin-6-yl]oxy}-4-fluorophenyl)-3-fluoropyrrolidine-1-sulfonamide], in test [1], the DC50 lay within 1 to 10 nM and the Dmax was ≥ 70%. Also, in test [2], the DC50 fell in the range of 50 to 500 nM and the Dmax is 35 to 70%.
In test [1], `N#Cc1c(NS(=O)(=O)N2CC[C@@H](F)C2)ccc(F)c1Oc1ccc2ncn(-c3ccc(C4CCN(CC5CN(c6ccc7c(c6Cl)CN([C@H]6CCC(=O)NC6=O)C7=O)C5)CC4)cc3)c(=O)c2c1` [Example 258, (3R)-N-(3-{[3-(4-{1-[(1-{4-chloro-2-[(3S)-2,6-dioxopiperidin-3-yl]-1-oxo-2,3-dihydro-1H-isoindol-5-yl}azetidin-3-yl)methyl]piperidin-4-yl}phenyl)-4-oxo-3,4-dihydroquinazolin-6-yl]oxy}-2-cyano-4-fluorophenyl)-3-fluoropyrrolidine-1-sulfonamide] returned a DC50 of 1 to 10 nM and a Dmax of 35 to 70%. In test [2], this molecule returned a DC50 of 50 to 500 nM and a Dmax of 35 to 70%.
On to `N#Cc1c(NS(=O)(=O)N2CC[C@@H](F)C2)ccc(F)c1Oc1ccc2ncn(-c3ccc(N4CCC(CN5CCC6(CCC(c7ccc8c(c7)CN([C@H]7CCC(=O)NC7=O)C8=O)CC6)CC5)CC4)cc3)c(=O)c2c1` [Example 262, (3R)-N-(2-cyano-3-{[3-(4-{4-[(9-{2-[(3S)-2,6-dioxopiperidin-3-yl]-1-oxo-2,3-dihydro-1H-isoindol-5-yl}-3-azaspiro[5.5]undecan-3-yl)methyl]piperidin-1-yl}phenyl)-4-oxo-3,4-dihydroquinazolin-6-yl]oxy}-4-fluorophenyl)-3-fluoropyrrolidine-1-sulfonamide], for which, in test [1], the DC50 was in the range of 1 to 10 nM and the Dmax is ≥ 70%. In test [2], the DC50 lay within 5 to 50 nM and the Dmax is ≥ 70%.
For `N#Cc1c(NS(=O)(=O)N2CC[C@@H](F)C2)ccc(F)c1Oc1ccc2ncn(-c3ccc(C4CCN(CC5CC6(CCN(c7ccc8c(c7)CN([C@H]7CCC(=O)NC7=O)C8=O)CC6)C5)C4)cc3)c(=O)c2c1` (stereo partly drawn) [Example 263, (3R)-N-(2-cyano-3-{[3-(4-{1-[(7-{2-[(3S)-2,6-dioxopiperidin-3-yl]-1-oxo-2,3-dihydro-1H-isoindol-5-yl}-7-azaspiro[3.5]nonan-2-yl)methyl]pyrrolidin-3-yl}phenyl)-4-oxo-3,4-dihydroquinazolin-6-yl]oxy}-4-fluorophenyl)-3-fluoropyrrolidine-1-sulfonamide], in test [1], the DC50 is 1 to 10 nM and the greatest degradation seen (Dmax) was ≥ 70%. In test [2], the DC50 lay within 50 to 500 nM and the maximal degradation (Dmax) is ≥ 70%.
In test [1], `CCN(CC1CCN(c2ccc(-n3cnc4ccc(Oc5c(F)ccc(NS(=O)(=O)N6CC[C@@H](F)C6)c5C#N)cc4c3=O)cc2)CC1)[C@H]1C[C@@H](Oc2ccc3c(c2)CN([C@H]2CCC(=O)NC2=O)C3=O)C1` [Example 264, (3R)-N-{2-cyano-3-[(3-{4-[4-({ethyl[(1r,3r)-3-({2-[(3S)-2,6-dioxopiperidin-3-yl]-1-oxo-2,3-dihydro-1H-isoindol-5-yl}oxy)cyclobutyl]amino}methyl)piperidin-1-yl]phenyl}-4-oxo-3,4 dihydroquinazolin-6-yl)oxy]-4-fluorophenyl}-3-fluoropyrrolidine-1-sulfonamide] displayed a DC50 of 1 to 10 nM and a Dmax of 35 to 70%. Moreover, in test [2], the DC50 is 50 to 500 nM and the Dmax is 35 to 70%.
With `N#Cc1c(NS(=O)(=O)N2CC[C@@H](F)C2)ccc(F)c1Oc1ccc2ncn(-c3ccc(N4CCN(CC5CCN(c6cc7c(c(OC(F)(F)F)c6)C(=O)N(C6CCC(=O)NC6=O)C7)CC5)CC4)cc3)c(=O)c2c1` (stereo partly drawn) [Example 265, (3R)-N-{2-cyano-3-[(3-{4-[4-({1-[2-(2,6-dioxopiperidin-3-yl)-1-oxo-7-(trifluoromethoxy)-2,3-dihydro-1H-isoindol-5-yl]piperidin-4-yl}methyl)piperazin-1-yl]phenyl}-4-oxo-3,4-dihydroquinazolin-6-yl)oxy]-4-fluorophenyl}-3-fluoropyrrolidine-1-sulfonamide], the DC50 in test [1] is 10 to 30 nM; in test [2], 50 to 500 nM. Further, the Dmax in test [1] and in test [2] was 35 to 70% throughout.
For the molecule `N#Cc1c(NS(=O)(=O)N2CC[C@@H](F)C2)ccc(F)c1Oc1ccc2ncn(-c3ccc(N4CCN(CC5CCN(c6cc7c(c(C(F)(F)F)c6)C(=O)N(C6CCC(=O)NC6=O)C7)CC5)CC4)cc3)c(=O)c2c1` (stereo partly drawn) [Example 266, (3R)-N-{2-cyano-3-[(3-{4-[4-({1-[2-(2,6-dioxopiperidin-3-yl)-1-oxo-7-(trifluoromethyl)-2,3-dihydro-1H-isoindol-5-yl]piperidin-4-yl}methyl)piperazin-1-yl]phenyl}-4-oxo-3,4-dihydroquinazolin-6-yl)oxy]-4-fluorophenyl}-3-fluoropyrrolidine-1-sulfonamide], the half-maximal degradation concentration (DC50) in test [1] was > 30 nM. Further, in test [2], the 50% degradation concentration (DC50) fell in the range of 50 to 500 nM and the maximal degradation (Dmax) lay in the range of 35 to 70%.
Take `COCCN(CC1CCN(c2ccc(-n3cnc4ccc(Oc5c(F)ccc(NS(=O)(=O)N6CC[C@@H](F)C6)c5C#N)cc4c3=O)cc2)CC1)[C@H]1C[C@@H](Oc2ccc3c(c2)CN([C@H]2CCC(=O)NC2=O)C3=O)C1` [Example 267, (3R)-N-[2-cyano-4-fluoro-3-({3-[4-(4-{[(2-methoxyethyl)[(1r,3r)-3-({2-[(3S)-2,6-dioxopiperidin-3-yl]-1-oxo-2,3-dihydro-1H-isoindol-5-yl}oxy)cyclobutyl]amino]methyl}piperidin-1-yl)phenyl]-4-oxo-3,4-dihydroquinazolin-6-yl}oxy)phenyl]-3-fluoropyrrolidine-1-sulfonamide]: the half-maximal degradation concentration (DC50) lay in the range of 10 to 30 nM in test [1] and 50 to 500 nM in test [2]. The maximal degradation (Dmax) in test [1] and in test [2] was 35 to 70% each time.
For the molecule `CC(=O)N(CC1CCN(c2ccc(-n3cnc4ccc(Oc5c(F)ccc(NS(=O)(=O)N6CC[C@@H](F)C6)c5C#N)cc4c3=O)cc2)CC1)[C@H]1C[C@@H](Oc2ccc3c(c2)CN([C@H]2CCC(=O)NC2=O)C3=O)C1` [Example 268, N-{[1-(4-{6-[2-cyano-6-fluoro-3-({[(3R)-3-fluoropyrrolidin-1-yl]sulfonyl}amino)phenoxy]-4-oxo-3,4-dihydroquinazolin-3-yl}phenyl)piperidin-4-yl]methyl}-N-[(1r,3r)-3-({2-[(3S)-2,6-dioxopiperidin-3-yl]-1-oxo-2,3-dihydro-1H-isoindol-5-yl}oxy)cyclobutyl]acetamide], in test [1], the DC50 lay within 10 to 30 nM and the maximal degradation (Dmax) was ≤ 35%. Moreover, the DC50 in test [2] was > 500 nM.
Turning to `CC(C)(C1CCN(c2ccc(-n3cnc4ccc(Oc5c(F)ccc(NS(=O)(=O)N6CC[C@@H](F)C6)c5C#N)cc4c3=O)cc2)CC1)N1CCN(c2ccc3c(c2)CN([C@H]2CCC(=O)NC2=O)C3=O)CC1` [Example 269, (3R)-N-(2-cyano-3-{[3-(4-{4-[2-(4-{2-[(3S)-2,6-dioxopiperidin-3-yl]-1-oxo-2,3-dihydro-1H-isoindol-5-yl}piperazin-1-yl)propan-2-yl]piperidin-1-yl}phenyl)-4-oxo-3,4-dihydroquinazolin-6-yl]oxy}-4-fluorophenyl)-3-fluoropyrrolidine-1-sulfonamide], in test [1], the DC50 lay in the range of 10 to 30 nM and the Dmax is ≥ 70%. In test [2], the half-maximal degradation concentration (DC50) fell in the range of 50 to 500 nM and the Dmax is 35 to 70%.
